Laboratory results published in ChEMBL document CHEMBL3508140 (2016).

Columns and labels:
[1] = Plasma clearance of epirubicin following intrahepatic epirubicin solution at 1 mg.Kg-1 dose in rabbit; type: ADME, organism-based, Oryctolagus cuniculus, Blood; settings: both, New Zealand White
[2] = Initial phase half-life of epirubicin following intravenous epirubicin at 20 mg.m-2 dose in cancer patients; type: ADME, organism-based, Plasma; settings: human, in vivo
[3] = Mean AUC of epirubicin following intravenous epirubicin at 60 mg.m-2 dose in cancer patients; type: ADME, organism-based; settings: human, plasma
[4] = (§1) Urinary elimination of 4'-epiadriamycin following intravenous bolus 4'-epiadriamycin at 10 mg.Kg-1 dose in rat; type: ADME, organism-based; settings: SD, urine, read-out: Compound recovery
[5] = Incidence of persistent proteinuria following reference intravenous epirubicin at 1 mg.Kg-1 per week in rat; type: toxicity, organism-based, SD; settings: in vivo
[6] = Urinary excretion of epirubicin following epirubicin at 60-150 mg.m-2 dose in cancer patients; type: ADME, organism-based; settings: human, urine; read-out: Compound recovery
[7] = Incidence of leukocyturia following reference intravenous epirubicin at 1 mg.Kg-1 per week in rat; type: toxicity, organism-based, SD; settings: in vivo
[8] = Decrease in albumin due to persistent proteinuria following reference intravenous epirubicin at 1 mg.Kg-1 per week in rat; type: toxicity, organism-based, SD, Serum; settings: in vivo
[9] = Plasma clearance of epirubicin following intravenous epirubicin at 60-90 mg.m-2 dose in cancer patients; type: ADME, organism-based; settings: human, in vivo
[10] = Initial phase half-life of epirubicin following intravenous epirubicin at 75-90 mg.m-2 dose in cancer patients; type: ADME, organism-based, Plasma; settings: human, in vivo
[11] = Recovery of epirubicin following intraperitoneal epirubicin at 4 mg.Kg-1 dose in mouse; type: ADME, organism-based, CD-1, Plasma; settings: in vivo, ip
Albumin = Albumin (Homo sapiens, UniProt P02768); assay: Binding of epirubicin to albumin; type: cell-free; settings: read-out: Plasma protein binding (converted)
[12] = Plasma clearance of epirubicin following intravenous epirubicin at 25-35 mg.m-2 dose in cancer patients; type: ADME, organism-based; settings: human, in vivo
[13] = Half-life of terminal elimination phase of epirubicin following intravenous epirubicin at 25-35 mg.m-2 dose in cancer patients; type: ADME, organism-based; settings: human, plasma
[14] = Half-life of terminal elimination phase of epirubicin following intravenous epirubicin at 30-90 mg.m-2 dose in cancer patients; type: ADME, organism-based; settings: human, plasma
[15] = Terminal elimination of metabolite of epirubicin following intravenous epirubicin at 40-135 mg.m-2 dose in cancer patients; type: ADME, organism-based, Plasma; settings: human, in vivo
[16] = Volume of distribution as steady state of epirubicin following intravenous epirubicin at 75-90 mg.m-2 dose in cancer patients; type: ADME, organism-based, Plasma; settings: human, in vivo
[17] = Detection of epirubicin in plasma following single intravenous epirubicin at 10 mg.Kg-1 dose in female mouse bearing colon tumor; type: ADME, organism-based, BALB/c; settings: in vivo
[18] = Plasma clearance of epirubicin following intravenous epirubicin emulsion at 1 mg.Kg-1 dose in rabbit; type: ADME, organism-based, Oryctolagus cuniculus, Blood; settings: both, New Zealand White
[19] = Plasma clearance of epirubicin following intravenous epirubicin at 1 mg.Kg-1 dose in rabbit; type: ADME, organism-based, Oryctolagus cuniculus; settings: both, New Zealand White
[20] = Cumulative biliary excretion of epirubicin and its metabolites following epirubicin at 50 mg.m-2 dose in cancer patients; type: ADME, organism-based, Bile; settings: human, in vivo; at 50 mg/m2
[21] = as §1; type: ADME, organism-based; settings: SD, urine, read-out: Compound recovery; remark: listed apart in the source
[22] = Terminal half-life of epirubicin following intrahepatic epirubicin solution at 1 mg.Kg-1 dose in rabbit; type: ADME, organism-based, Oryctolagus cuniculus; settings: both, New Zealand White, blood
[23] = Initial phase half-life of epirubicin following intravenous epirubicin at 50 mg.m-2 dose in cancer patients; type: ADME, organism-based, Plasma; settings: human, in vivo
[24] = Volume of distribution as steady state of epirubicin following intravenous epirubicin at 50 mg.m-2 dose in cancer patients; type: ADME, organism-based, Plasma; settings: human, in vivo
[25] = Half-life of epirubicin in plasma following single intravenous epirubicin at 10 mg.Kg-1 dose in female mouse bearing colon tumor; type: ADME, organism-based; settings: BALB/c
[26] = AUC of epirubicin following intrahepatic epirubicin solution at 1 mg.Kg-1 dose in rabbit; type: ADME, organism-based, Oryctolagus cuniculus; settings: both, New Zealand White, blood
[27] = Volume of distribution of epirubicin following intrahepatic epirubicin emulsion at 1 mg.Kg-1 dose in rabbit; type: ADME, organism-based, Oryctolagus cuniculus; settings: both, New Zealand White, blood
[28] = Terminal half-life of 4'-epiadriamycin following intravenous 4'-epiadriamycin at 1.27 mg.Kg-1 dose in dog; type: ADME, organism-based, Canis lupus familiaris; settings: Beagle, plasma
[29] = Mean plasma clearance of epirubicin following intravenous epirubicin at 60 mg.m-2 dose in cancer patients; type: ADME, organism-based; settings: human, read-out: CLp (converted)
[30] = Volume of distribution as steady state of epirubicin following intravenous epirubicin at 75 mg.m-2 dose in cancer patients; type: ADME, organism-based, Plasma; settings: human, in vivo
[31] = Intermediate phase half-life of epirubicin following intravenous epirubicin at 75-90 mg.m-2 dose in cancer patients; type: ADME, organism-based, Plasma; settings: human, in vivo
[32] = Volume of distribution as steady state of epirubicin following intravenous epirubicin at 60-90 mg.m-2 dose in cancer patients; type: ADME, organism-based, Plasma; settings: human, in vivo
[33] = Cumulative urinary excretion of epirubicin and its metabolites following epirubicin at 60-150 mg.m-2 dose in cancer patients; type: ADME, organism-based, Urine; settings: human, in vivo
[34] = Cumulative urinary excretion of epirubicin and its metabolites following epirubicin at 60 mg.m-2 dose in cancer patients; type: ADME, organism-based, Urine; settings: human, in vivo; at 60 mg/m2
[35] = Plasma clearance of epirubicin following intravenous epirubicin at 40-135 mg.m-2 dose in cancer patients; type: ADME, organism-based; settings: human, in vivo
[36] = Terminal half-life of epirubicin following intravenous epirubicin at 3 mg.Kg-1 dose in rabbit; type: ADME, organism-based, Oryctolagus cuniculus; settings: both, New Zealand White, plasma
[37] = Urinary excretion of epirubicin following epirubicin at 75-90 mg.m-2 dose in cancer patients; type: ADME, organism-based; settings: human, urine; read-out: Compound recovery
[38] = Initial phase half-life of epirubicin following intravenous epirubicin at 75 mg.m-2 dose in cancer patients; type: ADME, organism-based, Plasma; settings: human, in vivo
[39] = Plasma clearance of epirubicin following intrahepatic epirubicin emulsion at 1 mg.Kg-1 dose in rabbit; type: ADME, organism-based, Oryctolagus cuniculus, Blood; settings: both, New Zealand White
[40] = Volume of distribution of epirubicin following intravenous epirubicin emulsion at 1 mg.Kg-1 dose in rabbit; type: ADME, organism-based, Oryctolagus cuniculus; settings: both, New Zealand White, blood
[41] = Volume of distribution as steady state of epirubicin following intravenous epirubicin at 60 mg.m-2 dose in cancer patients; type: ADME, organism-based, Plasma; settings: human, in vivo
[42] = Recovery of epirubicin following intravenous epirubicin at 4 mg.Kg-1 dose in rat; type: ADME, organism-based, SD, Plasma; settings: in vivo
[43] = AUC of epirubicin following intravenous epirubicin emulsion at 1 mg.Kg-1 dose in rabbit; type: ADME, organism-based, Oryctolagus cuniculus; settings: both, New Zealand White, blood
[44] = Terminal elimination of metabolite of epirubicin following intravenous epirubicin at 25-35 mg.m-2 dose in cancer patients; type: ADME, organism-based, Plasma; settings: human, in vivo
[45] = Percentage of epirubicin excreted unchanged in urine following epirubicin at 60 mg.m-2 dose in cancer patients; type: ADME, organism-based; settings: human, at 60 mg/m2, read-out: Compound recovery
[46] = Intermediate phase half-life of epirubicin following intravenous epirubicin at 70 mg.m-2 dose in cancer patients; type: ADME, organism-based, Plasma; settings: human, in vivo
[47] = Renal clearance of epirubicin following epirubicin at 60 mg.m-2 dose in cancer patients; type: ADME, organism-based, Kidney; settings: human, in vivo, iv, read-out: Renal clearance (converted)
[48] = Cumulative urinary excretion of epirubicin and its metabolites following epirubicin at 50 mg.m-2 dose in cancer patients; type: ADME, organism-based, Urine; settings: human, in vivo; at 50 mg/m2
[49] = Terminal elimination of metabolite of epirubicin following intravenous epirubicin at 30-90 mg.m-2 dose in cancer patients; type: ADME, organism-based, Plasma; settings: human, in vivo
[50] = Detection of epirubicin in tumor following single intravenous epirubicin at 10 mg.Kg-1 dose in female mouse bearing colon tumor; type: ADME, organism-based, BALB/c, Neoplasm; settings: in vivo
[51] = Intermediate phase half-life of epirubicin following intravenous epirubicin at 20 mg.m-2 dose in cancer patients; type: ADME, organism-based, Plasma; settings: human, in vivo

Albumin, sequence (P02768 whole entry): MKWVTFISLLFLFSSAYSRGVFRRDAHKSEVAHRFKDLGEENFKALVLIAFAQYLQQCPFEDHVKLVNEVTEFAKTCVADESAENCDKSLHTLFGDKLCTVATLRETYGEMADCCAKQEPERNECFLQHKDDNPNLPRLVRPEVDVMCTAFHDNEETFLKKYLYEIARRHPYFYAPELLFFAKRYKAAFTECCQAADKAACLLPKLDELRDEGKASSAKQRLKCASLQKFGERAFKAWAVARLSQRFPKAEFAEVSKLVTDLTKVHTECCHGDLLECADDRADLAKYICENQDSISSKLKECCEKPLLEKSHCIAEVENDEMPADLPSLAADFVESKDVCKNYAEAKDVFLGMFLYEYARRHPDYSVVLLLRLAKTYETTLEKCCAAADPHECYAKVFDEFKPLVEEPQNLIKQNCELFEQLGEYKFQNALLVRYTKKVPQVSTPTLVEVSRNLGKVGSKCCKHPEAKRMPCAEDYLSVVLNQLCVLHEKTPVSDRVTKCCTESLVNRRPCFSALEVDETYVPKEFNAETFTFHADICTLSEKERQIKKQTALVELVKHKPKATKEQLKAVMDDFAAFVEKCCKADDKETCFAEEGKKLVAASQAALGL

COc1cccc2c1C(=O)c1c(O)c3c(c(O)c1C2=O)C[C@@](O)(C(=O)CO)C[C@@H]3O[C@H]1C[C@H](N)[C@@H](O)[C@H](C)O1.Cl [EPIRUBICIN HYDROCHLORIDE]
CL/F [1]: 2700 mL/min | t1/2 [2]: 3.4 min | AUC [3]: 1500 ng·h/mL | dose excreted [4]: 3.9% | Incidence [5]: OUTCOME = Observed | dose excreted at 168 h [6]: 3.2% | Incidence [7]: OUTCOME = Observed | ALB_CHANGE [8]: OUTCOME = Decreased | CLp [9]: 30.5 L.h-1.m-2 | t1/2 [10]: 4.8 min | Compound recovery [11]: 49 10^-9M | fraction unbound (Albumin): 0.43 | CLp [12]: 41.5 L.h-1.m-2 | half-life [13]: 29.3 h | half-life [14]: 39.4 h | t1/2 [15]: 18.1 h | Vss [16]: 1432 L.m-2 | Compound recovery [17]: OUTCOME = Observed | clearance [18]: 1560 mL/min | clearance [19]: 196 mL/min | Radiolabel recovery [20]: 34.9% | dose excreted [21]: 4.83% | half-life [22]: 1.14 h | t1/2 [23]: 3.44 min | Vss [24]: 583 L.m-2 | half-life [25]: 15.6 h | AUC [26]: 65.5 ng·h/mL | Vd [27]: 137 L/kg | half-life [28]: 7.1 min | clearance [29]: 1250 mL/min | Vss [30]: 2964 L.m-2 | t1/2 [31]: 2.6 h | Vss [32]: 1844 L.m-2 | Radiolabel recovery [33]: 5.9% | Radiolabel recovery [34]: 11.3% | CLp [35]: 50.9 L.h-1.m-2 | half-life [36]: 21.3 h | dose excreted at 48 h [37]: 5.9% | t1/2 [38]: 5.4 min | CL/F [39]: 3780 mL/min | Vd [40]: 18.8 L/kg | Vss [41]: 1272 L.m-2 | Compound recovery [42]: 56 10^-9M | AUC [43]: 134 ng·h/mL | t1/2 [44]: 21.1 h | dose excreted at 7 Day [45]: 6.4% | t1/2 [46]: 1.25 h | CL renal [47]: 71.7 mL/min | Radiolabel recovery [48]: 20% | t1/2 [49]: 32.2 h | Compound recovery [50]: OUTCOME = Observed | t1/2 [51]: 0.89 h
